Assay results taken from the NIST ThermoML archive (doi:10.1021/acs.jced.8b00433).

Assay: xn = mol fraction of the nth substance listed
Conditions: Gas, Buoyancy - hydrostatic balance with magnetic suspension - one sinker

C [methane] + O=C=O
Conditions | mass density [kg/m3]
313.09 K, 17999 kPa, x2 = 0.2017 | 188.702
313.1 K, 4001 kPa, x2 = 0.8988 | 75.134
313.1 K, 4996 kPa, x2 = 0.3997 | 58.587
313.1 K, 5996 kPa, x2 = 0.7985 | 114.567
313.1 K, 7003 kPa, x2 = 0.7985 | 142.512
313.1 K, 7006 kPa, x2 = 0.6015 | 110.298
313.11 K, 7997 kPa, x2 = 0.7985 | 174.464
313.11 K, 10000 kPa, x2 = 0.6015 | 177.419
313.11 K, 12001 kPa, x2 = 0.0998 | 102.596
313.11 K, 14997 kPa, x2 = 0.3997 | 217.543
313.12 K, 7992 kPa, x2 = 0.8988 | 206.745
313.12 K, 14996 kPa, x2 = 0.8988 | 624.636
313.13 K, 4001 kPa, x2 = 0.0998 | 30.822
313.13 K, 4002 kPa, x2 = 0.6015 | 56.419
313.13 K, 5003 kPa, x2 = 0.8988 | 100.174
313.13 K, 6004 kPa, x2 = 0.6015 | 90.955
313.13 K, 9996 kPa, x2 = 0.7985 | 256.481
313.13 K, 10003 kPa, x2 = 0.0998 | 83.788
313.13 K, 11005 kPa, x2 = 0.3997 | 149.559
313.14 K, 3998 kPa, x2 = 0.3997 | 45.694
313.14 K, 7995 kPa, x2 = 0.6015 | 130.852
313.14 K, 11000 kPa, x2 = 0.0998 | 93.126
313.14 K, 11001 kPa, x2 = 0.2017 | 110.189
313.14 K, 11001 kPa, x2 = 0.6015 | 202.91
313.14 K, 15004 kPa, x2 = 0.7985 | 485.573
313.15 K, 4004 kPa, x2 = 0.7985 | 68.752
313.15 K, 5996 kPa, x2 = 0.3997 | 72.099
313.15 K, 11997 kPa, x2 = 0.8988 | 506.067
313.16 K, 5003 kPa, x2 = 0.7985 | 90.396
313.16 K, 6996 kPa, x2 = 0.3997 | 86.285
313.16 K, 18004 kPa, x2 = 0.6015 | 375.856
313.17 K, 3002 kPa, x2 = 0.0998 | 22.748
313.17 K, 5002 kPa, x2 = 0.6015 | 73.052
313.17 K, 5997 kPa, x2 = 0.8988 | 128.664
313.17 K, 8998 kPa, x2 = 0.6015 | 153.28
313.17 K, 15002 kPa, x2 = 0.0998 | 130.663
313.17 K, 18004 kPa, x2 = 0.0998 | 157.443
313.17 K, 18005 kPa, x2 = 0.7985 | 560.943
313.18 K, 8998 kPa, x2 = 0.8988 | 265.242
313.18 K, 9004 kPa, x2 = 0.2017 | 87.631
313.18 K, 11998 kPa, x2 = 0.6015 | 229.134
313.18 K, 14996 kPa, x2 = 0.2017 | 155.927
313.19 K, 5002 kPa, x2 = 0.0998 | 39.114
313.19 K, 6000 kPa, x2 = 0.0998 | 47.652
313.19 K, 8998 kPa, x2 = 0.3997 | 116.64
313.19 K, 9995 kPa, x2 = 0.3997 | 132.712
313.19 K, 10993 kPa, x2 = 0.7985 | 305.994
313.19 K, 11992 kPa, x2 = 0.3997 | 166.169
313.2 K, 3998 kPa, x2 = 0.2017 | 35.711
313.2 K, 9001 kPa, x2 = 0.0998 | 74.487
313.2 K, 9003 kPa, x2 = 0.7985 | 212.239
313.2 K, 10990 kPa, x2 = 0.8988 | 432.06
313.21 K, 5000 kPa, x2 = 0.2017 | 45.475
313.21 K, 6999 kPa, x2 = 0.0998 | 56.348
313.21 K, 8000 kPa, x2 = 0.0998 | 65.323
313.21 K, 9999 kPa, x2 = 0.8988 | 344.181
313.21 K, 14995 kPa, x2 = 0.6015 | 308.146
313.21 K, 17995 kPa, x2 = 0.8988 | 683.03
313.21 K, 17997 kPa, x2 = 0.3997 | 264.841
313.22 K, 5999 kPa, x2 = 0.2017 | 55.518
313.22 K, 6997 kPa, x2 = 0.8988 | 163.201
313.22 K, 8000 kPa, x2 = 0.2017 | 76.608
313.22 K, 11998 kPa, x2 = 0.2017 | 121.576
313.22 K, 12000 kPa, x2 = 0.7985 | 357.778
313.23 K, 7005 kPa, x2 = 0.2017 | 65.96
313.24 K, 10003 kPa, x2 = 0.2017 | 98.786
313.27 K, 8000 kPa, x2 = 0.3997 | 101.088
333.06 K, 10002 kPa, x2 = 0.2017 | 88.824
333.07 K, 4003 kPa, x2 = 0.7985 | 62.105
333.07 K, 11999 kPa, x2 = 0.3997 | 144.496
333.07 K, 17998 kPa, x2 = 0.2017 | 166.841
333.08 K, 4997 kPa, x2 = 0.6015 | 65.944
333.08 K, 5002 kPa, x2 = 0.3997 | 53.475
333.08 K, 8999 kPa, x2 = 0.2017 | 79.049
333.08 K, 9003 kPa, x2 = 0.3997 | 103.555
333.08 K, 15000 kPa, x2 = 0.8988 | 456.324
333.1 K, 5000 kPa, x2 = 0.0998 | 36.091
333.11 K, 6004 kPa, x2 = 0.6015 | 81.338
333.11 K, 11001 kPa, x2 = 0.2017 | 98.605
333.12 K, 4001 kPa, x2 = 0.6015 | 51.39
333.12 K, 4003 kPa, x2 = 0.2017 | 33.068
333.12 K, 6995 kPa, x2 = 0.3997 | 77.606
333.12 K, 9995 kPa, x2 = 0.3997 | 116.802
333.12 K, 14999 kPa, x2 = 0.0998 | 116.773
333.12 K, 18006 kPa, x2 = 0.6015 | 310.346
333.13 K, 5006 kPa, x2 = 0.8988 | 88.521
333.13 K, 5996 kPa, x2 = 0.2017 | 50.919
333.13 K, 7000 kPa, x2 = 0.0998 | 51.598
333.13 K, 10993 kPa, x2 = 0.8988 | 274.201
333.13 K, 12000 kPa, x2 = 0.6015 | 189.959
333.13 K, 14996 kPa, x2 = 0.3997 | 186.621
333.14 K, 4996 kPa, x2 = 0.2017 | 41.851
333.14 K, 7998 kPa, x2 = 0.6015 | 114.282
333.14 K, 10995 kPa, x2 = 0.6015 | 169.869
333.14 K, 11002 kPa, x2 = 0.3997 | 130.586
333.14 K, 11997 kPa, x2 = 0.8988 | 319.541
333.14 K, 14998 kPa, x2 = 0.7985 | 360.976
333.14 K, 18001 kPa, x2 = 0.0998 | 140.51
333.15 K, 6001 kPa, x2 = 0.0998 | 43.781
333.15 K, 8994 kPa, x2 = 0.6015 | 131.934
333.15 K, 11999 kPa, x2 = 0.0998 | 92.187
333.15 K, 14994 kPa, x2 = 0.2017 | 138.03
333.15 K, 14999 kPa, x2 = 0.6015 | 251.317
333.16 K, 7002 kPa, x2 = 0.6015 | 97.409
333.16 K, 11003 kPa, x2 = 0.0998 | 83.984
333.16 K, 12001 kPa, x2 = 0.2017 | 108.442
333.16 K, 18000 kPa, x2 = 0.7985 | 447.149
333.16 K, 18001 kPa, x2 = 0.3997 | 227.522
333.17 K, 4004 kPa, x2 = 0.3997 | 41.983
333.17 K, 4007 kPa, x2 = 0.8988 | 67.864
333.17 K, 5002 kPa, x2 = 0.7985 | 80.565
333.17 K, 7997 kPa, x2 = 0.8988 | 164.576
333.18 K, 9007 kPa, x2 = 0.7985 | 170.905
333.18 K, 9999 kPa, x2 = 0.0998 | 75.751
333.18 K, 12003 kPa, x2 = 0.7985 | 260.729
333.19 K, 7001 kPa, x2 = 0.8988 | 136.146
333.19 K, 8000 kPa, x2 = 0.0998 | 59.549
333.19 K, 8996 kPa, x2 = 0.8988 | 196.344
333.19 K, 8999 kPa, x2 = 0.0998 | 67.601
333.19 K, 9999 kPa, x2 = 0.7985 | 198.595
333.19 K, 10001 kPa, x2 = 0.6015 | 150.602
333.19 K, 11002 kPa, x2 = 0.7985 | 228.687
333.2 K, 5991 kPa, x2 = 0.7985 | 100.196
333.2 K, 6008 kPa, x2 = 0.3997 | 65.434
333.2 K, 7994 kPa, x2 = 0.7985 | 145.123
333.2 K, 8002 kPa, x2 = 0.2017 | 69.464
333.21 K, 9996 kPa, x2 = 0.8988 | 232.812
333.21 K, 18000 kPa, x2 = 0.8988 | 552.634
333.22 K, 6999 kPa, x2 = 0.2017 | 60.167
333.22 K, 7005 kPa, x2 = 0.7985 | 121.973
333.22 K, 7995 kPa, x2 = 0.3997 | 90.268
333.24 K, 6001 kPa, x2 = 0.8988 | 110.997
353.02 K, 2999 kPa, x2 = 0.0998 | 19.722
353.03 K, 10001 kPa, x2 = 0.6015 | 135.164
353.05 K, 9004 kPa, x2 = 0.6015 | 119.448
353.08 K, 12003 kPa, x2 = 0.8988 | 250.219
353.08 K, 14998 kPa, x2 = 0.2017 | 125.022
353.09 K, 11999 kPa, x2 = 0.6015 | 167.978
353.09 K, 17992 kPa, x2 = 0.6015 | 269.799
353.1 K, 8995 kPa, x2 = 0.8988 | 165.756
353.1 K, 17997 kPa, x2 = 0.8988 | 437.7
353.11 K, 12000 kPa, x2 = 0.3997 | 129.551
353.11 K, 18006 kPa, x2 = 0.7985 | 362.285
353.12 K, 5997 kPa, x2 = 0.8988 | 99.468
353.12 K, 6004 kPa, x2 = 0.6015 | 74.991
353.12 K, 18000 kPa, x2 = 0.3997 | 201.731
353.13 K, 4000 kPa, x2 = 0.8988 | 61.9
353.13 K, 6004 kPa, x2 = 0.3997 | 60.111
353.13 K, 14997 kPa, x2 = 0.3997 | 165.894
353.14 K, 9003 kPa, x2 = 0.0998 | 62.172
353.14 K, 14999 kPa, x2 = 0.6015 | 219.076
353.15 K, 6003 kPa, x2 = 0.7985 | 90.263
353.15 K, 14995 kPa, x2 = 0.0998 | 106.161
353.15 K, 14999 kPa, x2 = 0.8988 | 346.055
353.16 K, 3001 kPa, x2 = 0.6015 | 35.135
353.16 K, 15004 kPa, x2 = 0.7985 | 288.885
353.17 K, 9004 kPa, x2 = 0.3997 | 93.855
353.18 K, 3996 kPa, x2 = 0.7985 | 56.892
353.18 K, 4002 kPa, x2 = 0.2017 | 30.584
353.18 K, 4004 kPa, x2 = 0.3997 | 38.873
353.18 K, 11994 kPa, x2 = 0.7985 | 214.517
353.22 K, 8998 kPa, x2 = 0.7985 | 147.521
353.22 K, 17999 kPa, x2 = 0.0998 | 127.527
353.23 K, 6000 kPa, x2 = 0.0998 | 40.53
353.24 K, 11994 kPa, x2 = 0.0998 | 84.225
353.26 K, 6007 kPa, x2 = 0.2017 | 46.942
353.27 K, 9000 kPa, x2 = 0.2017 | 72.326
353.28 K, 12001 kPa, x2 = 0.2017 | 98.585
353.37 K, 17994 kPa, x2 = 0.2017 | 150.552
